Assay results published in ChEMBL document CHEMBL4138126, “Synthesis, antiproliferative, anti-tubulin activity, and docking study of new 1,2,4-triazoles as potential combretastatin analogues” (Eur J Med Chem, 2017).

Experiments:
Assay type in all cases: functional
HepG2 [1] = test: Induction of apoptosis in human HepG2 cells assessed as early apoptotic cells level at 1.41 uM by Annexin V and propidium iodide staining based flow cytometry
HepG2 [2] = test: Induction of apoptosis in human HepG2 cells assessed as viable cells level at 1.41 uM by Annexin V and propidium iodide staining based flow cytometry
HepG2 [3] = test: Induction of apoptosis in human HepG2 cells assessed as late apoptotic cells level at 1.41 uM by Annexin V and propidium iodide staining based flow cytometry
HepG2 [4] = test: Induction of cell cycle arrest in human HepG2 cells assessed as accumulation at S phase at cytotoxic IC50 by propidium iodide staining based flow cytometry (reference value: 25.2%)
HepG2 [5] = test: Induction of apoptosis in human HepG2 cells at cytotoxic IC50 by propidium iodide staining based flow cytometry (reference value: 1.2%)
HepG2 [6] = test: Induction of cell cycle arrest in human HepG2 cells assessed as accumulation at G2 phase at cytotoxic IC50 by propidium iodide staining based flow cytometry (reference value: 7.2%)

Question: `CCOc1ccc(-n2nc(C(=O)NCc3cc(F)cc(F)c3)nc2-c2cc(OC)c(OC)c(OC)c2)cc1` was tested. Which Activity (HepG2 [1]) did it give?
Answer: The Activity was 21%.

Question: And the Activity (HepG2 [2])?
Answer: The Activity was 62%.

Question: And the Activity (HepG2 [3])?
Answer: Its Activity is 14%.

Question: What about the Activity (HepG2 [4]) of the same molecule?
Answer: The Activity was 26.3%.

Question: And the Activity (HepG2 [5])?
Answer: Its Activity is 16.7%.

Question: What about the Activity (HepG2 [6]) of the same molecule?
Answer: Its Activity is 21.6%.
